Assay results as given in publication PMC6379368, “Extracellular and intracellular small-molecule galectin-3 inhibitors” (Scientific Reports, 2019).

Key:
Assay type in all cases: cell-based
[1] = test system: JIMT-1 cells; assay: MTT cell viability assay, JIMT-1; settings: JIMT-1, 72 hours, 0.04–40 µM for 1 and 2, 0.04–20 µM for 3
Protocol: The MTT (3-[4,5-dimethylthiazol-2-yl]−2,5-diphenyltetrazolium bromide) assays were performed as previously described. […] The cells were incubated for 24 hours before addition of galectin-3 inhibitors. The inhibitors were diluted in PBS from their respective stock solution in DMSO (see Galectin-3 inhibitors) and used at final concentrations ranging from 0.04 to 40 μM. DMSO was adjusted to make the final DMSO concentration 0.2% for all inhibitor concentrations, including the control sample (no inhibitor). After 72 hours of treatment, 20 μl of 5 mg/ml MTT solution (in PBS) was added to each well and incubation continued for 1 hour at 37 °C. Thereafter, the MTT containing medium was removed and 100 μl of DMSO was added per well and the plates swirled gently for 10 minutes to dissolve the cells and the purple formazan product precipitate. Absorbance was monitored at 540 nm using a Labsystems iEMS Reader MF (Labsystems Oy, Helsinki, Finland) and the software DeltaSoft II v.4.14 (Biometallics Inc., Princeton, NJ, USA).

[2] = test system: PanC-1 cells; assay: MTT assay, PanC-1 pancreatic cancer cells; settings: PanC-1, 72 hours
Protocol: The MTT (3-[4,5-dimethylthiazol-2-yl]−2,5-diphenyltetrazolium bromide) assays were performed as previously described. In brief, cells were seeded in 96-well plates (6000 cells/well for MCF-7 and HCC1937 and 5000 cells for JIMT-1 in 180 μl fully-supplemented medium as described under Cell culture). The cells were incubated for 24 hours before addition of galectin-3 inhibitors. The inhibitors were diluted in PBS from their respective stock solution in DMSO (see Galectin-3 inhibitors) and used at final concentrations ranging from 0.04 to 40 μM. DMSO was adjusted to make the final DMSO concentration 0.2% for all inhibitor concentrations, including the control sample (no inhibitor). After 72 hours of treatment, 20 μl of 5 mg/ml MTT solution (in PBS) was added to each well and incubation continued for 1 hour at 37 °C. […] Absorbance was monitored at 540 nm using a Labsystems iEMS Reader MF (Labsystems Oy, Helsinki, Finland) and the software DeltaSoft II v.4.14 (Biometallics Inc., Princeton, NJ, USA). […]
(§1) Fluorescence anisotropy assay
(§2) The affinity between inhibitor 1 and the carbohydrate recognition domain (CRD) of galectin-8C and between inhibitor 3 and the CRD of galectin-2, -4N, -4C, 8C, and -9C was determined using the fluorescence anisotropy assay described in the main article. […]

[3] = test system: AsPC-1 cells; assay: Growth curves, AsPC-1; settings: AsPC-1, 10 µM
Protocol: (§3) METHODS (not described in main article)
(§4) The AsPC-1, BxPc-3, MIA PaCa-2, and PanC-1 pancreatic cancer cell lines were purchased from the American Type Culture Collection (ATCC) (Manassas, VA, USA). AsPC-1 and BxPc-3 cell lines were cultured in RPMI-1640 medium, and MIA PaCa-2 and PanC-1 in Dulbecco's Modified Eagle Medium (DMEM)/Ham's F12 medium mixture (1:1). The medium of all four pancreatic cancer cell lines was supplemented with 10 % fetal bovine serum (FBS), 100 U/ml penicillin, and 100 μg/ml streptomycin. The L56Br-C1 breast cancer cell line was established at Lund University (Lund, Sweden)1, and was cultured in RPMI-1640 medium supplemented with 10 % heat-inactivated FBS, 100 U/ml penicillin, 100 μg/ml streptomycin, 1 mM non-essential amino acids, and 10 µg/ml insulin. The MCF-10A normal-like breast cell line was obtained from ATCC and was cultured in the same medium mixture as L56Br-C1 with the addition of 20 ng/ml epidermal growth factor, 50 ng/ml cholera toxin, and 500 ng/ml hydrocortisone.
as §1
as §2, with “article. Experimental conditions used for each galectin” for “article.”

[4] = test system: BxPc-3 cells; assay: Growth curves, BxPc-3; settings: BxPc-3, 10 µM
Protocol: as §3, §4, §1
as §2, with “article. Experimental conditions used for each galectin” for “article.”

[5] = test system: MIA PaCa-2 cells; assay: Growth curves, MIA PaCa-2; settings: MIA PaCa-2, 10 µM
Protocol: as §3, §4, §1
as §2, with “article. Experimental conditions used for each galectin” for “article.”

[6] = test system: L56Br-C1 cells; assay: Growth curves, L56Br-C1 breast cancer cells; settings: L56Br-C1, 10 µM
Protocol: as §3, §4, §1
as §2, with “article. Experimental conditions used for each galectin” for “article.”

Structure (SMILES): OC[C@H]1O[C@@H](S[C@@H]2O[C@H](CO)[C@H](O)[C@H](n3cc(-c4cccc(F)c4)nn3)[C@H]2O)[C@H](O)[C@@H](n2cc(-c3cccc(F)c3)nn2)[C@H]1O [compound 1]
- cell viability (MTT) [1]: no apparent change in cell viability
- toxicity (MTT) [2]: low toxicity
- cell proliferation (growth curves) [3]: no effect
- cell proliferation (growth curves) [4]: no effect
- cell proliferation (growth curves) [5]: no effect
- cell proliferation (growth curves) [6]: no effect
